Assay results as given in patent US20060069132A1, “Azolecarboxamide herbicides” (priority 2004, published 2006).

Legend:
[1] = tested on: small flower umbrella sedge; assay: Test B flooded paddy test; format: in vivo, Cyperus difformis; conditions: 1000 g ai/ha, visual rating, scale 0 to 100 (0 no effect, 100 complete control), 13 to 15 days
Procedure, shortened: (§1)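 Paddy species grown to the 2-leaf stage under flooding; blackgrass sprayed postemergence at 2–18 cm (1- to 4-leaf stage). Plants kept in a greenhouse for 13 to 15 days, then visually rated against controls on 0 (no effect) to 100 (complete control).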

barnyardgrass [2] = assay: Test A pre-/postemergence herbicide test; format: in vivo, Echinochloa crus-galli
Procedure, shortened: (§2)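 Pre: seeded sandy loam, directed soil spray, compound in non-phytotoxic solvent + surfactant. Post: 1–2-leaf plants (2–10 cm), sprayed to runoff. Greenhouse ~10 d; visual injury vs untreated, 0–100 scale.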

morningglory [3] = assay: Test A pre-/postemergence herbicide test; format: in vivo, Ipomoea spp.
Procedure, shortened: as §2

redroot pigweed = assay: Test A pre-/postemergence herbicide test; format: in vivo, Amaranthus retroflexus
Procedure, shortened: as §2

rice [4] = assay: Test B flooded paddy test; format: in vivo, Oryza sativa; conditions: 1000 g ai/ha, visual rating, scale 0 to 100 (0 no effect, 100 complete control), 13 to 15 days
Procedure, shortened: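 Read-out: visual comparison with controls, scored 0 to 100, where 100 means complete control and 0 no effect. Formulated chemicals were applied postemergence to plants 2–18 cm tall (1- to 4-leaf), or to flooded-paddy plants at the 2-leaf stage, then held 13 to 15 days under glass.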

giant foxtail [5] = assay: Test A pre-/postemergence herbicide test; format: in vivo, Setaria faberi
Procedure, shortened: as §2

ducksalad = assay: Test B flooded paddy test; format: in vivo, Heteranthera limosa; conditions: 1000 g ai/ha, visual rating, scale 0 to 100 (0 no effect, 100 complete control), 13 to 15 days
Procedure, shortened: as §1

barnyardgrass [6] = assay: Test B flooded paddy test; format: in vivo, Echinochloa crus-galli; conditions: 1000 g ai/ha, visual rating, scale 0 to 100 (0 no effect, 100 complete control), 13 to 15 days
Procedure, shortened: as §1

large crabgrass [7] = assay: Test A pre-/postemergence herbicide test; format: in vivo, Digitaria sanguinalis
Procedure, shortened: as §2

velvetleaf [8] = assay: Test A pre-/postemergence herbicide test; format: in vivo, Abutilon theophrasti
Procedure, shortened: as §2

pigweed = assay: Test B pre-/postemergence herbicide test; format: in vivo, Amaranthus retroflexus; conditions: for Plant response rating, Pigweed: preemergence; for Pigweed plant response rating: postemergence, visual rating, scale 0 (no effect) to 100 (complete control)
Procedure, shortened: (§3)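 Visual rating, 0 (no effect) to 100 (complete control), versus untreated controls after 13–15 d in greenhouse. Pre- and postemergence applications (postemergence plants 2–18 cm, 1–4 leaves); flooded paddy arm at 2-leaf stage. Compounds in non-phytotoxic solvent plus surfactant.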

rice [9] = assay: Test B pre-/postemergence herbicide test; format: in vivo, Oryza sativa; conditions: preemergence
Procedure, shortened: as §3

blackgrass = assay: Test B postemergence herbicide test; format: in vivo, Alopecurus myosuroides; conditions: postemergence, visual rating, scale 0 (no effect) to 100 (complete control)
Procedure, shortened: as §1

velvetleaf [10] = assay: Test B pre-/postemergence herbicide test; format: in vivo, Abutilon theophrasti; conditions: for Plant response rating, Velvetleaf: preemergence; for Velvetleaf plant response rating: postemergence, visual rating, scale 0 (no effect) to 100 (complete control)
Procedure, shortened: as §3

barnyardgrass [11] = assay: Test B pre-/postemergence herbicide test; format: in vivo, Echinochloa crus-galli; conditions: for Plant response rating, Barnyardgrass: preemergence; for Barnyardgrass plant response rating: postemergence, visual rating, scale 0 (no effect) to 100 (complete control)
Procedure, shortened: (§4)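 Test chemicals in a non-phytotoxic solvent mixture with surfactant were applied preemergence to seeded species and postemergence to plants 2-18 cm tall (1- to 4-leaf stage); rice and barnyardgrass were also tested in a flooded paddy at the 2-leaf stage. Visual rating versus controls after 13-15 days in greenhouse, scale 0 (no effect) to 100 (complete control).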

lambsquarters = assay: Test B pre-/postemergence herbicide test; format: in vivo, Chenopodium album; conditions: for Plant response rating, Lambsquarters: preemergence; for Lambsquarters plant response rating: postemergence, visual rating, scale 0 (no effect) to 100 (complete control)
Procedure, shortened: as §3

Surinam grass = assay: Test B pre-/postemergence herbicide test; format: in vivo, Urochloa decumbens; conditions: for Plant response rating, Surinam Grass: preemergence; for Surinam Grass plant response rating: postemergence, visual rating, scale 0 (no effect) to 100 (complete control)
Procedure, shortened: as §3

wild oat = assay: Test B postemergence herbicide test; format: in vivo, Avena fatua; conditions: postemergence, visual rating, scale 0 (no effect) to 100 (complete control)
Procedure, shortened: (§5)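 Postemergence plants were sprayed with formulated test chemicals at 2 to 18 cm height (1- to 4-leaf stage); paddy species were grown to the 2-leaf stage. After 13 to 15 days in a greenhouse, injury was rated visually against untreated controls on a 0–100 scale (0 = no effect, 100 = complete control).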

wheat = assay: Test B postemergence herbicide test; format: in vivo, Triticum aestivum; parameters: key to Wheat plant response rating: 0 = no effect, 100 = complete control; conditions: postemergence, 500 g ai/ha; visual rating, scale 0 (no effect) to 100 (complete control)
Procedure, shortened: as §5

giant foxtail [12] = assay: Test B pre-/postemergence herbicide test; format: in vivo, Setaria faberi; conditions: for Plant response rating, Foxtail, Giant: preemergence; for Foxtail, Giant plant response rating: postemergence, visual rating, scale 0 (no effect) to 100 (complete control)
Procedure, shortened: as §3

cocklebur = assay: Test B pre-/postemergence herbicide test; format: in vivo, Xanthium strumarium; conditions: for Plant response rating, Cocklebur: preemergence; for Cocklebur plant response rating: postemergence, visual rating, scale 0 (no effect) to 100 (complete control)
Procedure, shortened: as §4

large crabgrass [13] = assay: Test B pre-/postemergence herbicide test; format: in vivo, Digitaria sanguinalis; conditions: for Plant response rating, Crabgrass, Large: preemergence; for Crabgrass, Large plant response rating: postemergence, visual rating, scale 0 (no effect) to 100 (complete control)
Procedure, shortened: as §3

morningglory [14] = assay: Test B pre-/postemergence herbicide test; format: in vivo, Ipomoea coccinea; conditions: for Plant response rating, Morningglory: preemergence; for Morningglory plant response rating: postemergence, visual rating, scale 0 (no effect) to 100 (complete control)
Procedure, shortened: as §4

corn = assay: Test B pre-/postemergence herbicide test; format: in vivo, Zea mays; conditions: for Plant response rating, Corn: preemergence; for Corn plant response rating: postemergence, visual rating, scale 0 (no effect) to 100 (complete control)
Procedure, shortened: as §3

[15] = Postemergence, 500 g ai/ha, 0 to 100 scale, 0 no effect, 100 complete control
[16] = Postemergence, 2000 g ai/ha, 0 to 100 scale, 0 no effect, 100 complete control
[17] = Preemergence, 500 g ai/ha, visual rating, 0 to 100 scale (0 no effect, 100 complete control)
[18] = Preemergence, 2000 g ai/ha, visual rating, 0 to 100 scale (0 no effect, 100 complete control)
[19] = preemergence, 500 g ai/ha, visual injury, 0 to 100 scale (0 no effect, 100 complete control)
[20] = 500 g ai/ha, visual rating 0-100, 0 no effect, 100 complete control
[21] = 125 g ai/ha, 0 to 100 scale, 0 is no effect, 100 is complete control

SMILES: CCn1nc(C(C)(C)C)cc1C(=O)Nc1nccc(OC)n1 [Compound 165]
- Sedge, Umbrella plant response rating [1]: 0
- Barnyardgrass plant response rating (barnyardgrass [2]; [15]): 0
- Plant response rating, Barnyardgrass (barnyardgrass [2]; [16]): 0
- Barnyardgrass plant response rating (barnyardgrass [2]; [17]): 0
- Barnyardgrass plant response rating (barnyardgrass [2]; [18]): 0
- Morningglory plant response rating (morningglory [3]; [15]): 5
- Plant response rating, Morningglory (morningglory [3]; [16]): 5
- Morningglory plant response rating (morningglory [3]; [17]): 0
- Morningglory plant response rating (morningglory [3]; [18]): 0
- Pigweed plant response rating (redroot pigweed; [15]): 0
- Plant response rating, Pigweed (redroot pigweed; [16]): 5
- Pigweed plant response rating (redroot pigweed; [18]): 20
- Pigweed plant response rating (redroot pigweed; [19]): 0
- Rice plant response rating (rice [4]): 0
- Foxtail, Giant plant response rating (giant foxtail [5]; [15]): 0
- Plant response rating, Foxtail, Giant (giant foxtail [5]; [16]): 0
- Foxtail, Giant plant response rating (giant foxtail [5]; [17]): 0
- Foxtail, Giant plant response rating (giant foxtail [5]; [18]): 0
- Ducksalad plant response rating (ducksalad): 0
- Barnyardgrass plant response rating (barnyardgrass [6]): 0
- Crabgrass, Large plant response rating (large crabgrass [7]; [15]): 0
- Plant response rating, Crabgrass, Large (large crabgrass [7]; [16]): 0
- Crabgrass, Large plant response rating (large crabgrass [7]; [17]): 0
- Crabgrass, Large plant response rating (large crabgrass [7]; [18]): 0
- Velvetleaf plant response rating (velvetleaf [8]; [15]): 10
- Plant response rating, Velvetleaf (velvetleaf [8]; [16]): 20
- Velvetleaf plant response rating (velvetleaf [8]; [18]): 5
- Velvetleaf plant response rating (velvetleaf [8]; [19]): 0
- Plant response rating, Pigweed (pigweed; [20]): 0
- Pigweed plant response rating (pigweed; 125 g ai/ha): 0
- Pigweed plant response rating (pigweed; 500 g ai/ha): 0
- Plant response rating, Pigweed (pigweed; [21]): 0
- Plant response rating, Rice (rice [9]; [20]): 0
- Plant response rating, Rice (rice [9]; [21]): 0
- Blackgrass plant response rating (blackgrass; 125 g ai/ha): 0
- Blackgrass plant response rating (blackgrass; 500 g ai/ha): 0
- Plant response rating, Velvetleaf (velvetleaf [10]; [20]): 0
- Velvetleaf plant response rating (velvetleaf [10]; 125 g ai/ha): 0
- Velvetleaf plant response rating (velvetleaf [10]; 500 g ai/ha): 0
- Plant response rating, Velvetleaf (velvetleaf [10]; [21]): 0
- Plant response rating, Barnyardgrass (barnyardgrass [11]; [20]): 0
- Barnyardgrass plant response rating (barnyardgrass [11]; 125 g ai/ha): 0
- Barnyardgrass plant response rating (barnyardgrass [11]; 500 g ai/ha): 0
- Plant response rating, Barnyardgrass (barnyardgrass [11]; [21]): 0
- Plant response rating, Lambsquarters (lambsquarters; [20]): 0
- Lambsquarters plant response rating (lambsquarters; 125 g ai/ha): 0
- Lambsquarters plant response rating (lambsquarters; 500 g ai/ha): 0
- Plant response rating, Lambsquarters (lambsquarters; [21]): 0
- Plant response rating, Surinam Grass (Surinam grass; [20]): 0
- Surinam Grass plant response rating (Surinam grass; 125 g ai/ha): 0
- Surinam Grass plant response rating (Surinam grass; 500 g ai/ha): 0
- Plant response rating, Surinam Grass (Surinam grass; [21]): 0
- Oat, Wild plant response rating (wild oat; 125 g ai/ha): 0
- Oat, Wild plant response rating (wild oat; 500 g ai/ha): 0
- Wheat plant response rating (wheat): 0
- Plant response rating, Foxtail, Giant (giant foxtail [12]; [20]): 0
- Foxtail, Giant plant response rating (giant foxtail [12]; 125 g ai/ha): 0
- Foxtail, Giant plant response rating (giant foxtail [12]; 500 g ai/ha): 0
- Plant response rating, Foxtail, Giant (giant foxtail [12]; [21]): 0
- Plant response rating, Cocklebur (cocklebur; [20]): 0
- Cocklebur plant response rating (cocklebur; 125 g ai/ha): 0
- Cocklebur plant response rating (cocklebur; 500 g ai/ha): 0
- Plant response rating, Cocklebur (cocklebur; [21]): 0
- Plant response rating, Crabgrass, Large (large crabgrass [13]; [20]): 0
- Crabgrass, Large plant response rating (large crabgrass [13]; 125 g ai/ha): 0
- Crabgrass, Large plant response rating (large crabgrass [13]; 500 g ai/ha): 0
- Plant response rating, Crabgrass, Large (large crabgrass [13]; [21]): 0
- Plant response rating, Morningglory (morningglory [14]; [20]): 0
- Morningglory plant response rating (morningglory [14]; 125 g ai/ha): 0
- Morningglory plant response rating (morningglory [14]; 500 g ai/ha): 0
- Plant response rating, Morningglory (morningglory [14]; [21]): 0
- Plant response rating, Corn (corn; [20]): 0
- Corn plant response rating (corn; 125 g ai/ha): 0
- Corn plant response rating (corn; 500 g ai/ha): 0
- Plant response rating, Corn (corn; [21]): 0
